The text below walks through data of paper PMC6930660, “Synthesis and Comparative Structure–Activity Study of Carbohydrate-Based Phenolic Compounds as α-Glucosidase Inhibitors and Antioxidants” (Molecules, 2019).

The term IC50 denotes the concentration needed to halve the response being measured. By EC50 is commonly meant the concentration at which the effect is half-maximal.

Values joined by “and” are separate entries in the source; they are usually repeats but may differ in a detail not shown here. Equal values may be shown once. Where only a bound is given, the exact number is not on record here.

The target of series [1] is rat α-glucosidase. In words: α-glucosidase inhibitory activity assay (FUJIFILM kit, maltose substrate, glucose measured by mutarotase-GOD method). As to conditions: for IC50: rat α-glucosidase, 18.5 mM maltose, maleic anhydride buffer pH 6.0, 37 °C, 30 min, mean ± S.D. of n = 2. Format: biochemical. On the procedure:
(§1) The α-glucosidase inhibitory activity of all samples was assayed utilizing a commercially available FUJIFILM α-glucosidase inhibitory activity assay kit. In total, 25 μL of each sample (25–2000 μg/mL in H2O ) or acarbose (0.5–8 μg/mL in H2O ), 50 μL of 18.5 mM maltose diluted in maleic anhydride buffer (100 mM, pH = 6.0), and 25 μL of the rat α-glucosidase solution were incubated in a micro-tube at 37 °C for 30 min. Subsequently, 400 μL of purified water was added to the solution and the reaction mixture was boiled for 3 min to deactivate α-glucosidase. The generated glucose was measured by LabAssay™ glucose (mutarotase-GOD method). In total, 100 μL of the reaction solution and 150 μL of the coloring solution were incubated in 96-well plates at 37 °C for 10 min, and the absorbance was recorded at 505 nm using a microplate reader (Bio-Rad, Model 680). The inhibition percentage was calculated using the following Equation: Inhibition percentage (%) = 1−As−Ab/Ac ×100 where As is the absorbance of the analyzed sample, Ab is the absorbance of the blank (immediate deactivation), and Ac is the absorbance of the control ([…]). Acarbose was used as the positive control.

The nature of series [2]: DPPH radical scavenging assay (antioxidant activity). The settings on record: for EC50: MES-NaOH buffer pH 6.0, 15 min in the dark; for Antioxidant Trolox-eq (TE): trolox-equivalent (mol-trolox/mol-sample) = slope of sample / slope of trolox. On the procedure:
The antioxidant activity was assessed by employing the 2,2-diphenyl-1-picrylhydrazyl (DPPH) radical scavenging assay, according to the previously published method. In total, 100 μL of each sample (1000–10 μg/mL in 50%EtOH/ H2O ) or trolox (160–0 μM in 50% EtOH/ H2O ), and 50 μL of 2-(N-morpholino)ethanesulfonic acid (MES)-NaOH buffer (200 mM, pH = 6.0), and 50 μL of an 800 μM DPPH diluted in 99.5% EtOH were mixed in 96-well plates. Following shaking the microplate for 15 min in the dark, the absorbance was recorded at 520 nm using a microplate reader (Bio-Rad, Model 680). Effective percentages (%) were calculated as follows: Effective percentages (%) = 1−As/Ab ×100 where As is the absorbance of the sample and Ab is the absorbance of the blank (without samples, 50% EtOH/ H2O solution was used instead).
The trolox-equivalent (sample-mol/trolox-mol) was calculated as follows: Trolox−equivalent (mol−trolox/mol−sample) = Ss/St where Ss is the slope of the sample and St is the slope of trolox.
On the technique in general: DPPH is a stable violet radical that fades when it is reduced.

Series [3] is described as follows: dissolution of the sample in water for the α-glucosidase assay. The series is classed as physicochemical. Also noted: key: −: Did not dissolve in water. As to conditions: samples prepared in H2O. As to the method:
as §1

Take `O=C(OC[C@H]1OC[C@H](O)[C@@H](O)[C@@H]1OC(=O)c1cc(O)c(O)c(O)c1)c1cc(O)c(O)c(O)c1` [Compound 40, 1,5-Anhydro-4,6-bis-O-(3′,4′,5′-trihydroxybenzoyl)-D-glucitol]: inhibition in series [1] was half-maximal at 26.6 ± 2.37 µM (IC50). Moreover, in series [2] (mean ± S.D. of n = 3), a half-maximal effect (EC50) was put at 13 ± 1.12 µM and the “Antioxidant Trolox-eq (TE)” value came to 3.78 ± 0.33.
For the compound `O=C(O[C@H]1[C@H](OC(=O)c2cc(O)c(O)c(O)c2)[C@@H](CO)OC[C@@H]1OC(=O)c1cc(O)c(O)c(O)c1)c1cc(O)c(O)c(O)c1` [Compound 41, 1,5-Anhydro-2,3,4-tris-O-(3′,4′,5′-trihydroxybenzoyl)-D-glucitol], the IC50 in series [1] worked out at 6.72 ± 0.21 µM. In series [2] (mean ± S.D. of n = 3), the EC50 is 7.94 ± 0.39 µM and the “Antioxidant Trolox-eq (TE)” value was 5.59 ± 0.26.
Compound `O=C(OC[C@H]1OC[C@H](OC(=O)c2cc(O)c(O)c(O)c2)[C@@H](OC(=O)c2cc(O)c(O)c(O)c2)[C@@H]1O)c1cc(O)c(O)c(O)c1` [Compound 42, 1,5-Anhydro-2,3,6-tris-O-(3′,4′,5′-trihydroxybenzoyl)-D-glucitol] registered an IC50 in series [1] of 5.34 ± 0.55 µM. Besides, in series [2] (mean ± S.D. of n = 3), a half-maximal response (EC50) required 8.09 ± 0.41 µM and the “Antioxidant Trolox-eq (TE)” value came to 5.75 ± 0.18.
In series [1], `O=C(OC[C@H]1OC[C@H](OC(=O)c2cc(O)c(O)c(O)c2)[C@@H](O)[C@@H]1OC(=O)c1cc(O)c(O)c(O)c1)c1cc(O)c(O)c(O)c1` [Compound 43, 1,5-Anhydro-2,4,6-tris-O-(3′,4′,5′-trihydroxybenzoyl)-D-glucitol] had an IC50 of 9.34 ± 0.99 µM. Further, in series [2] (mean ± S.D. of n = 3), the EC50 was 10.3 ± 0.76 µM and the “Antioxidant Trolox-eq (TE)” value is recorded as 4.31 ± 0.35.
As to `O=C(OC[C@H]1OC[C@H](O)[C@@H](OC(=O)c2cc(O)c(O)c(O)c2)[C@@H]1OC(=O)c1cc(O)c(O)c(O)c1)c1cc(O)c(O)c(O)c1` [Compound 44, 1,5-Anhydro-3,4,6-tris-O-(3′,4′,5′-trihydroxybenzoyl)-D-glucitol], in series [1], half-maximal inhibition (IC50) was put at 12.6 ± 0.61 µM. In series [2] (mean ± S.D. of n = 3), the EC50 turned out to be 8.48 ± 0.21 µM and the “Antioxidant Trolox-eq (TE)” value is given as 5.36 ± 0.20.
In turn, `O=C(OC[C@H]1OC[C@H](OC(=O)c2ccc(O)c(O)c2)[C@@H](OC(=O)c2ccc(O)c(O)c2)[C@@H]1OC(=O)c1ccc(O)c(O)c1)c1ccc(O)c(O)c1` [Compound 55, 1,5-Anhydro-2,3,4,6-tetrakis-O-(3′,4′-dihydroxybenzoyl)-D-glucitol] gave an IC50 in series [1] of 3.28 ± 0.16 µM. Further, in series [2] (mean ± S.D. of n = 3), a half-maximal effect (EC50) was put at 6.99 ± 0.11 µM; the “Antioxidant Trolox-eq (TE)” value is 6.54 and 6.54 ± 0.15.
In series [1], `O=C(OC[C@H]1OC[C@H](OC(=O)c2cc(O)cc(O)c2)[C@@H](OC(=O)c2cc(O)cc(O)c2)[C@@H]1OC(=O)c1cc(O)cc(O)c1)c1cc(O)cc(O)c1` [Compound 56, 1,5-Anhydro-2,3,4,6-tetrakis-O-(3,5-dihydroxybenzoyl)-D-glucitol] gave a concentration for half-maximal inhibition (IC50) of 9.34 ± 0.02 µM. The “antioxidant activity (in words)” value in series [2] was “no antioxidant activity was observed”. Besides, in series [2] (mean ± S.D. of n = 3), the EC50 was > 70 µM.
Turning to `O=C(OC[C@H]1OC[C@H](OC(=O)c2cccc(O)c2)[C@@H](OC(=O)c2cccc(O)c2)[C@@H]1OC(=O)c1cccc(O)c1)c1cccc(O)c1` [Compound 57, 1,5-Anhydro-2,3,4,6-tetrakis-O-(3-hydroxybenzoyl)-D-glucitol], in series [2], the “antioxidant activity (in words)” value was “no antioxidant activity was observed”. For the same compound, in series [2] (mean ± S.D. of n = 3), the EC50 was > 78 µM. Further, the “solubility in water (no α-glucosidase IC50 obtained)” value in series [3] was “−^d”.
For the compound `O=C(OC[C@H]1OC[C@H](OC(=O)c2ccc(O)cc2)[C@@H](OC(=O)c2ccc(O)cc2)[C@@H]1OC(=O)c1ccc(O)cc1)c1ccc(O)cc1` [Compound 58, 1,5-Anhydro-2,3,4,6-tetrakis-O-(4-hydroxybenzoyl)-D-glucitol], the “antioxidant activity (in words)” value in series [2] is recorded as “no antioxidant activity was observed”. Besides, the EC50 in series [2] (mean ± S.D. of n = 3) is > 78 µM. In addition, the “solubility in water (no α-glucosidase IC50 obtained)” value in series [3] is reported as “−^d”.
Take `O=C(OC[C@H]1OC(O)[C@H](OC(=O)c2cc(O)c(O)c(O)c2)[C@@H](OC(=O)c2cc(O)c(O)c(O)c2)[C@@H]1OC(=O)c1cc(O)c(O)c(O)c1)c1cc(O)c(O)c(O)c1` (stereo partly drawn) [Compound 61, 2,3,4,6-tetrakis-O-(3′,4′,5′-Trihydroxybenzoyl)-α,β-D-glucopyranose]: the IC50 in series [1] is 1.68 ± 0.21 µM. For the same compound, the “α-glucosidase inhibitory activity, fold higher than acertannin (37)” value in series [1] (relative to acertannin (37)) is on record as “more than 13 fold”. Further, in series [2] (mean ± S.D. of n = 3), the midpoint of the response, the EC50, lay at 5.6 ± 0.28 µM and the “Antioxidant Trolox-eq (TE)” value came to 8.33 ± 0.49.
In turn, `O=C(O[C@H]1[C@@H]2OC(=O)c3cc(O)c(O)c(O)c3-c3c(cc(O)c(O)c3O)C(=O)OC[C@H]2OC[C@@H]1OC(=O)c1cc(O)c(O)c(O)c1)c1cc(O)c(O)c(O)c1` [Compound 67, 1,5-Anhydro-2,3-bis-O-(3′,4′,5′-trihydroxybenzoyl)-4,6-O-hexahydroxydiphenyl-D-glucitol] had an IC50 in series [1] of 3.22 ± 0.51 µM. Moreover, in series [2] (mean ± S.D. of n = 3), the EC50 was 6.79 ± 0.21 µM; the “Antioxidant Trolox-eq (TE)” value is 6.44 and 6.44 ± 0.24.
Consider `COC(=O)c1ccc(O)c(O)c1` [Methyl 3,4-dihydroxybenzoate, methyl 3,4-dihydroxybenzoate, reference compound], for which the IC50 in series [1] was > 300 µM. Also, the concentration for a half-maximal effect (EC50) in series [2] (mean ± S.D. of n = 3) is 21.1 ± 1.08 µM. Further, the “Antioxidant Trolox-eq (TE)” value was found to be 2.20 ± 0.05 in series [2] (mean ± S.D. of n = 3) and 2.20 in series [2] (mean ± S.D. of n = 3, listed as methyl 3,4-dihydroxybenzoate).
On to `COC(=O)c1cc(O)cc(O)c1` [Methyl 3,5-dihydroxybenzoate, methyl 3,5-dihydroxybenzoate, reference compound], for which the IC50 in series [1] was > 300 µM. The “antioxidant activity (in words)” value in series [2] is listed as “did not exhibit any notable activity”.
For `COC(=O)c1cccc(O)c1` [Methyl 3-hydroxybenzoate, methyl 3-hydroxybenzoate, reference compound], in that order: > 660 µM and “did not exhibit any notable activity”.
For `COC(=O)c1ccc(O)cc1` [Methyl 4-hydroxybenzoate, methyl 4-hydroxybenzoate, reference compound], the concentration for half-maximal inhibition (IC50) in series [1] was > 660 µM. Also, the “antioxidant activity (in words)” value in series [2] is listed as “did not exhibit any notable activity”.
For `COC(=O)c1cc(O)c(O)c(O)c1` [Methyl gallate, reference compound], half-maximal inhibition in series [1] (IC50) required 90.5 ± 6.97 µM. Moreover, in series [2] (mean ± S.D. of n = 3), the EC50 was found to be 19.6 ± 0.11 µM and the “Antioxidant Trolox-eq (TE)” value is given as 2.42 ± 0.27.
In series [1], Tellimagrandin I [reference compound] registered an IC50 of 3.37 ± 0.04 µM. In series [2] (mean ± S.D. of n = 3), it took 6.31 ± 0.27 µM to reach a half-maximal effect (EC50) and the “Antioxidant Trolox-eq (TE)” value is recorded as 7.04 ± 0.37. Besides, the “Antioxidant Trolox-eq (TE)” value in series [2] (mean ± S.D. of n = 3, listed as tellimagrandin I) turned out to be 7.04.
